How the values were obtained:
[1] = tested on: GFP-LC8 trap transfected Cos1/Cos7 cells; assay: Organelle dispersion and microtubule array in cells expressing the LC8 trap; type: cell-based; settings: expression of the trap alone, no AP20187
Text: In vivo effect of Dynein LC and IC Traps. As tests for LC function, we evaluated the effects of the traps on early endosome, lysosome, and Golgi distribution, as well as mitotic progression. First, we fused green fluorescent protein (GFP) to the N-terminus of both FKBP-traps to identify transfected cells. Next, we transfected Cos1, Cos7, or HeLa cells with either trap or a GFP-FKBP control and labeled endosomes, lysosomes and Golgi with EEA1, LAMP2 and GM130 markers, respectively (FIGS. 12A-12C). […] The percentage of cells expressing the GFPLC8 or GFP-TcTex1 trap with dispersed endosomes was 14.7±1.5% and 13.3±1.5%, respectively, as compared to 11.7±3.5% and 10.3±3.5% for non-transfected cells and cells that expressed a GFP-FKBP control, respectively. […] After 8 h of treatment with AP20187, we observed greater than 50% dispersion of the three organelle types for each trap.
To ensure the AP20187 concentration was not limiting, we followed the LC8-trap-induced dispersion of lysosomes as a function of AP20187 concentration after 8 h. […] For the TcTex1-trap, we observed efficient endosome, lysosome and Golgi dispersion at AP20187 concentrations of 1 μM or greater.
Kinetic Analysis Separates Dynein Functions. A major purpose for developing these traps is to provide immediate inhibition of protein function and follow the cellular response from this perturbation to gain new insight. Thus, we monitored the fraction of cells with dispersed organelles as a function of time. After induction of dimerization by AP20187, effects on both early endosome and lysosome distribution were detectable at 10 min, and leveled off at ˜2 h (FIGS. 14A-14B). […] The most rapid effect was observed on lysosomes in cells expressing the LC8 trap. In striking contrast, Golgi dispersal using either trap occurred over a much longer time-course, requiring 8 h after induction of dimerization to reach similar levels of dispersion as for endosomes and lysosomes. Twenty-four hours after addition of AP20187, the percentage of cells with dispersed Golgi reached levels greater than 85%.

LC8 = biological target: T1, LC8 (Homo sapiens, UniProt P63167); assay: Defective mitotic spindle morphology; type: cell-based; settings: transfected cells
T1 construct: we monitored the distribution of Golgi in cells subjected to LC8 RNAi; endogenous in cells
T1 sequence (P63167 whole entry): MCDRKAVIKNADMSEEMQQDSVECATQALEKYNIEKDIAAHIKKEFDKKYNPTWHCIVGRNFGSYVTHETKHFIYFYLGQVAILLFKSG
Protocol: As a test for effects on cytoplasmic dynein functions that are distinct from vesicular transport, we monitored mitotic behavior in cells expressing either the LC8- or TcTex1-traps. We observed little effect on either mitotic index or the fraction of mitotic cells at discrete mitotic stages with either trap (data not shown). […] Finally, similar studies were carried out using the IC trap. As before, we observed little or no change in the dispersion of endosomes and Golgi apparatus before AP20187 treatment. Induction of dimerization through the addition of AP20187 (1 μM) produced immediate changes in both organelles. After 4 h, 81+4% of cells contained dispersed endosomes and 68+3% of cells contained dispersed Golgi. […] The precise reason for this difference is not clear; however, currently, we attribute this to a change in the cytoskeleton, but this must still be verified. We are also in the process of measuring the effect of sequestering the dynein IC on mitotic behavior.

TcTex1 = assay: Trap specificity by native PAGE, TcTex1; type: binding; settings: with or without AP20187 treatment
Text: In addition, there is no evidence that LC8 can bind proteins bearing a TcTex1 sequence or vice versa (e.g., LC8 binds to BimEL, Pak1, nNOS, etc.; TcTex1 binds to Doc2α, PTHR receptor, etc.50).

GFPLC8: green fluorescent protein fused to the N-terminus of the FKBP LC8-trap
percentage of cells with dispersed endosomes [1]: 14.7±1.5%

LC8-trap: LC8 binding region of the dynein IC (residues 125-137, rat IC2C) fused to the C-terminus of FKBP
defective mitotic spindle morphology (LC8): 20+2%
binding to TcTex1 (TcTex1): does not bind

Reference: US9260710B2, “Photocleavable linker” (City of Hope, priority 2012, dated 2016)
